In ChEMBL document CHEMBL3751688, “Synthesis, in vitro antimycobacterial evaluation and docking studies of some new 5,6,7,8-tetrahydropyrido[4',3':4,5]thieno[2,3-d]pyrimidin-4(3H)-one schiff bases” (Bioorg Med Chem Lett, 2016):
Converted amounts (≈) assume the structure as drawn.

What was measured:
[1] = system: Mycobacterium tuberculosis; assay: Antimycobacterial activity against isoniazid-resistant Mycobacterium tuberculosis after 14 days by broth microdilution method; assay type: functional; conditions: 336 h
[2] = system: Mycobacterium tuberculosis; assay: Antimycobacterial activity against isoniazid-resistant Mycobacterium tuberculosis after 21 days by broth microdilution method; assay type: functional; conditions: 504 h

Structure (SMILES): Cc1nc2sc3c(c2c(=O)n1/N=C/c1ccc(C#N)cc1)CCN(Cc1ccccc1)C3
- MIC [1]: 20 µM (≈ 8.79 µg/mL)
- MIC [2]: 20 µM (≈ 8.79 µg/mL)

Structure (SMILES): N#Cc1ccc(/C=N/n2cnc3sc4c(c3c2=O)CCN(Cc2ccccc2)C4)cc1
- MIC [1]: 9 µM (≈ 3.83 µg/mL)
- MIC [2]: 9 µM (≈ 3.83 µg/mL)

Structure (SMILES): O=c1c2c3c(sc2ncn1/N=C/c1ccc(Cl)cc1)CN(Cc1ccccc1)CC3
- MIC [1]: 20 µM (≈ 8.7 µg/mL)
- MIC [2]: 20 µM (≈ 8.7 µg/mL)

Structure (SMILES): Cc1nc2sc3c(c2c(=O)n1/N=C/c1ccc(Cl)cc1)CCN(Cc1ccccc1)C3
- MIC [1]: 8 µM (≈ 3.59 µg/mL)
- MIC [2]: 8 µM (≈ 3.59 µg/mL)

Structure (SMILES): COc1ccc(/C=N/n2cnc3sc4c(c3c2=O)CCN(Cc2ccccc2)C4)cc1
- MIC [1]: 20 µM (≈ 8.61 µg/mL)
- MIC [2]: 20 µM (≈ 8.61 µg/mL)

Structure (SMILES): O=c1c2c3c(sc2ncn1/N=C/c1cccs1)CN(Cc1ccccc1)CC3
- MIC [1]: 22 µM (≈ 8.94 µg/mL)
- MIC [2]: 22 µM (≈ 8.94 µg/mL)

Structure (SMILES): CC[C@@H](CO)NCCN[C@@H](CC)CO [ETHAMBUTOL]
- MIC [1]: 4 µM (≈ 0.817 µg/mL)
- MIC [2]: 4 µM (≈ 0.817 µg/mL)

Structure (SMILES): NNC(=O)c1ccncc1 [ISONIAZID]
- MIC [1]: > 8 µM
- MIC [2]: > 8 µM

Structure (SMILES): CO[C@H]1/C=C/O[C@@]2(C)Oc3c(C)c(O)c4c(O)c(c(/C=N/N5CCN(C)CC5)c(O)c4c3C2=O)NC(=O)/C(C)=C\C=C\[C@H](C)[C@H](O)[C@@H](C)[C@@H](O)[C@@H](C)[C@H](OC(C)=O)[C@@H]1C [RIFAMPIN]
- MIC [1]: 2 µM (≈ 1.65 µg/mL)
- MIC [2]: 2 µM (≈ 1.65 µg/mL)

Structure (SMILES): CN[C@@H]1[C@H](O[C@H]2[C@H](O[C@H]3[C@H](O)[C@@H](O)[C@H](N=C(N)N)[C@@H](O)[C@@H]3N=C(N)N)O[C@@H](C)[C@]2(O)C=O)O[C@@H](CO)[C@H](O)[C@H]1O [STREPTOMYCIN]
- MIC [1]: 2 µM (≈ 1.16 µg/mL)
- MIC [2]: 2 µM (≈ 1.16 µg/mL)
